Structures can show the parent of a compound that is named as a salt.
Each molecule was assayed against T1, MPO (purified from human polynuclear leukocytes) (Homo sapiens, UniProt P05164) (assay: MPO Amplex Red Activity Assay). Settings: Table 1, 2 μM H2O2, pH 7.4.
T1 construct: purified from human polynuclear leukocytes; purchased Calbiochem/EMD Biosciences; host or cells: human polynuclear leukocytes (natural source)
Type: biochemical
How it was run: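 Potency is given as kinact/KI: kobs values from 600 s progress curves, minus the uninhibited rate, are fit against inhibitor concentration. Reactions use 2 μM H2O2, 30 μM Amplex Red, pH 7.4 phosphate buffer with NaCl, DTPA and 2% DMSO, started with […] human MPO. Readout is resorufin fluorescence, catalase background subtracted.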

T1 sequence (P05164 279-745 limits assumed): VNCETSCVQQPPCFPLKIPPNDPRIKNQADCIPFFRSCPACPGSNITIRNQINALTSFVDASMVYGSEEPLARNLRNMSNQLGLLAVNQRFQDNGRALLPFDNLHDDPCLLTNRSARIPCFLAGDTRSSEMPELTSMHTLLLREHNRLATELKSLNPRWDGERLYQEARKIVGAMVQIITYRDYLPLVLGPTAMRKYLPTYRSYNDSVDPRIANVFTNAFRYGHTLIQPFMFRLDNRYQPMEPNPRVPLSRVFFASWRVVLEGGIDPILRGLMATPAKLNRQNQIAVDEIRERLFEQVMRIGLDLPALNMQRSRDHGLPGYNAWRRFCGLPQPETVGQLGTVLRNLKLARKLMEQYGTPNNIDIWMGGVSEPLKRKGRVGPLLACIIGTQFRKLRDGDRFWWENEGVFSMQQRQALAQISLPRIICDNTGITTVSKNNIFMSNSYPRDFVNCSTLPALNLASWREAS
T1 sequence (P05164 165-273 limits assumed): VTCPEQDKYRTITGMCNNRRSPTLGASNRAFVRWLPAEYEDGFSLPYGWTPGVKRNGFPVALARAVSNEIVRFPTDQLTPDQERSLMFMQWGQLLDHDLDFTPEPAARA

| Structure (SMILES) | MPO kinact/Ki |
| --- | --- |
| COc1cc(-c2cc(=O)[nH]c(=S)n2CCO)c(OC)cc1Cl [Example 206, 6-(4-chloro-2,5-dimethoxyphenyl)-1-(2-hydroxyethyl)-2-thioxo-2,3-dihydropyrimidin-4(1H)-one] | 7690 1/s per M |
| COc1ccc(-c2cc(=O)[nH]c(=S)n2Cc2ccn[nH]2)c(OC)c1 [Example 207, 6-(2,4-dimethoxyphenyl)-1-(1H-pyrazol-5-ylmethyl)-2-thioxo-2,3-dihydropyrimidin-4(1H)-one] | 2400 1/s per M |
| NC(=O)Cn1c(-c2ccccc2OC(F)(F)F)cc(=O)[nH]c1=S [Example 208, 2-{4-oxo-2-thioxo-6-[2-(trifluoromethoxy)phenyl]-3,4-dihydropyrimidin-1(2H)-yl}acetamide] | 3760 1/s per M |
| COc1ccc(-c2cc(=O)[nH]c(=S)n2Cc2ncn[nH]2)c(OC)c1 [Example 209, 6-(2,4-dimethoxyphenyl)-2-thioxo-1-(1H-1,2,4-triazol-5-ylmethyl)-2,3-dihydropyrimidin-4(1H)-one] | 4360 1/s per M |
| COCCn1c(-c2ccc(OC(F)(F)F)cc2)cc(=O)[nH]c1=S [Example 210, 1-(2-methoxyethyl)-2-thioxo-6-[4-(trifluoromethoxy)phenyl]-2,3-dihydropyrimidin-4(1H)-one] | 968 1/s per M |
| COc1ccc(-c2cc(=O)[nH]c(=S)n2CC2CCCN2)c(OC)c1 (stereo not drawn) [Example 211, 6-(2,4-dimethoxyphenyl)-1-(pyrrolidin-2-ylmethyl)-2-thioxo-2,3-dihydropyrimidin-4(1H)-one hydrochloride] | 6090 1/s per M |
| COc1ccc(-c2cc(=O)[nH]c(=S)n2CC2CCNC2)c(OC)c1 (stereo not drawn) [Example 212, 6-(2,4-dimethoxyphenyl)-1-(pyrrolidin-3-ylmethyl)-2-thioxo-2,3-dihydropyrimidin-4(1H)-one hydrochloride] | 7590 1/s per M |
| COc1ccc(-c2cc(=O)[nH]c(=S)n2C[C@@H]2CCCO2)c(OC)c1 [Example 213, 6-(2,4-dimethoxyphenyl)-1-[(2S)-tetrahydrofuran-2-ylmethyl]-2-thioxo-2,3-dihydropyrimidin-4(1H)-one] | 4690 1/s per M |
| COc1ccc(-c2cc(=O)[nH]c(=S)n2C[C@H]2CCCO2)c(OC)c1 [Example 214, 6-(2,4-dimethoxyphenyl)-1-[(2R)-tetrahydrofuran-2-ylmethyl]-2-thioxo-2,3-dihydropyrimidin-4(1H)-one] | 10700 1/s per M |
| COc1ccc(-c2cc(=O)[nH]c(=S)n2CCNC(C)=O)c(OC)c1 [Example 215, N-{2-[6-(2,4-dimethoxyphenyl)-4-oxo-2-thioxo-3,4-dihydropyrimidin-1(2H)-yl]ethyl}acetamide] | 1920 1/s per M |
| CNC(=O)CCn1c(-c2ccc(OC)cc2OC)cc(=O)[nH]c1=S [Example 216, 3-[6-(2,4-dimethoxyphenyl)-4-oxo-2-thioxo-3,4-dihydropyrimidin-1(2H)-yl]-N-methylpropanamide] | 3260 1/s per M |
| COc1ccc(-c2cc(=O)[nH]c(=S)n2CC(C)C(N)=O)c(OC)c1 (stereo not drawn) [Example 217, 3-[6-(2,4-dimethoxyphenyl)-4-oxo-2-thioxo-3,4-dihydropyrimidin-1(2H)-yl]-2-methylpropanamide] | 3940 1/s per M |
| COc1ccc(-c2cc(=O)[nH]c(=S)n2CCCCCN)c(OC)c1 [Example 218, 1-(5-aminopentyl)-6-(2,4-dimethoxyphenyl)-2-thioxo-2,3-dihydropyrimidin-4(1H)-one hydrochloride] | 14100 1/s per M |
| COc1ccc(-c2cc(=O)[nH]c(=S)n2CCC(C)(C)N)c(OC)c1 [Example 219, 1-(3-amino-3-methylbutyl)-6-(2,4-dimethoxyphenyl)-2-thioxo-2,3-dihydropyrimidin-4(1H)-one hydrochloride] | 1970 1/s per M |
| COc1ccc(-c2cc(=O)[nH]c(=S)n2CCCN(C)C)c(OC)c1 [Example 220, 6-(2,4-dimethoxyphenyl)-1-[3-(dimethylamino)propyl]-2-thioxo-2,3-dihydropyrimidin-4(1H)-one] | 2420 1/s per M |
| CCOC(=O)Cn1c(-c2ccc(OC)cc2OC)cc(=O)[nH]c1=S [Example 221, ethyl [6-(2,4-dimethoxyphenyl)-4-oxo-2-thioxo-3,4-dihydropyrimidin-1(2H)-yl]acetate] | 6230 1/s per M |
| COc1ccc(-c2cc(=O)[nH]c(=S)n2CCOC(C)=O)c(OC)c1 [Example 222, 2-[6-(2,4-dimethoxyphenyl)-4-oxo-2-thioxo-3,4-dihydropyrimidin-1(2H)-yl]ethyl acetate] | 9820 1/s per M |
| COc1ccc(-c2cc(=O)[nH]c(=S)n2CCNC(N)=O)c(OC)c1 [Example 223, 1-{2-[6-(2,4-dimethoxyphenyl)-4-oxo-2-thioxo-3,4-dihydropyrimidin-1(2H)-yl]ethyl}urea] | 3000 1/s per M |

| Structure (SMILES) | MPO kinact/Ki |
| --- | --- |
| COc1ccc(-c2cc(=O)[nH]c(=S)n2CC(C)(C)CO)c(OC)c1 [Example 224, 6-(2,4-dimethoxyphenyl)-1-(3-hydroxy-2,2-dimethylpropyl)-2-thioxo-2,3-dihydropyrimidin-4(1H)-one] | 3280 1/s per M |
| COc1ccc(-c2cc(=O)[nH]c(=S)n2CCCCCO)c(OC)c1 [Example 225, 6-(2,4-dimethoxyphenyl)-1-(5-hydroxypentyl)-2-thioxo-2,3-dihydropyrimidin-4(1H)-one] | 5490 1/s per M |
| COc1ccc(-c2cc(=O)[nH]c(=S)n2CCOC(C)C)c(OC)c1 [Example 226, 6-(2,4-dimethoxyphenyl)-1-(2-isopropoxyethyl)-2-thioxo-2,3-dihydropyrimidin-4(1H)-one] | 6280 1/s per M |
| COc1ccc(-c2cc(=O)[nH]c(=S)n2CCCSC)c(OC)c1 [Example 227, 6-(2,4-dimethoxyphenyl)-1-[3-(methylthio)propyl]-2-thioxo-2,3-dihydropyrimidin-4(1H)-one] | 745 1/s per M |
| COc1ccc(-c2cc(=O)[nH]c(=S)n2Cc2ccccc2)c(OC)c1 [Example 228, 1-benzyl-6-(2,4-dimethoxyphenyl)-2-thioxo-2,3-dihydropyrimidin-4(1H)-one] | 615 1/s per M |
| COc1cc(-c2cc(=O)[nH]c(=S)n2CC(N)=O)c(OC)cc1Cl [Example 229, 2-[6-(4-chloro-2,5-dimethoxyphenyl)-4-oxo-2-thioxo-3,4-dihydropyrimidin-1(2H)-yl]acetamide] | 5900 1/s per M |
| COc1ccc(-c2cc(=O)[nH]c(=S)n2Cc2ccccn2)c(OC)c1 [Example 230, 6-(2,4-dimethoxyphenyl)-1-(pyridin-2-ylmethyl)-2-thioxo-2,3-dihydropyrimidin-4(1H)-one] | 1740 1/s per M |
| COc1ccc(-c2cc(=O)[nH]c(=S)n2Cc2cccnc2)c(OC)c1 [Example 231, 6-(2,4-dimethoxyphenyl)-1-(pyridin-3-ylmethyl)-2-thioxo-2,3-dihydropyrimidin-4(1H)-one] | 1910 1/s per M |
| COc1ccc(-c2cc(=O)[nH]c(=S)n2Cc2ccncc2)c(OC)c1 [Example 232, 6-(2,4-dimethoxyphenyl)-1-(pyridin-4-ylmethyl)-2-thioxo-2,3-dihydropyrimidin-4(1H)-one] | 4520 1/s per M |
| COCCn1c(-c2cc(OC)c(Cl)cc2OC)cc(=O)[nH]c1=S [Example 233, 6-(4-chloro-2,5-dimethoxyphenyl)-1-(2-methoxyethyl)-2-thioxo-2,3-dihydropyrimidin-4(1H)-one] | 2510 1/s per M |
| COc1ccc(-c2cc(=O)[nH]c(=S)n2Cc2ncccn2)c(OC)c1 [Example 234, 6-(2,4-dimethoxyphenyl)-1-(pyrimidin-2-ylmethyl)-2-thioxo-2,3-dihydropyrimidin-4(1H)-one] | 3060 1/s per M |
| COc1ccc(-c2cc(=O)[nH]c(=S)n2CC2CCNCC2)c(OC)c1 [Example 235, 6-(2,4-dimethoxyphenyl)-1-(piperidin-4-ylmethyl)-2-thioxo-2,3-dihydropyrimidin-4(1H)-one hydrochloride] | 2690 1/s per M |
| COc1ccc(-c2cc(=O)[nH]c(=S)n2CC(=O)NC(=N)N)c(OC)c1 [Example 236, N-[amino(imino)methyl]-2-[6-(2,4-dimethoxyphenyl)-4-oxo-2-thioxo-3,4-dihydropyrimidin-1(2H)-yl]acetamide trifluoroacetate] | 5740 1/s per M |
| COc1ccc(-c2cc(=O)[nH]c(=S)n2CCC(=O)N(C)C)c(OC)c1 [Example 237, 3-[6-(2,4-dimethoxyphenyl)-4-oxo-2-thioxo-3,4-dihydropyrimidin-1(2H)-yl]-N,N-dimethylpropanamide] | 2360 1/s per M |
| COc1ccc(-c2cc(=O)[nH]c(=S)n2CC2CNCCO2)c(OC)c1 (stereo not drawn) [Example 238, 6-(2,4-dimethoxyphenyl)-1-(morpholin-2-ylmethyl)-2-thioxo-2,3-dihydropyrimidin-4(1H)-one hydrochloride] | 8740 1/s per M |
| CCOC(=O)C(C)n1c(-c2ccc(OC)cc2OC)cc(=O)[nH]c1=S (stereo not drawn) [Example 239, ethyl 2-[6-(2,4-dimethoxyphenyl)-4-oxo-2-thioxo-3,4-dihydropyrimidin-1(2H)-yl]propanoate] | 1850 1/s per M |
| CCOC(=O)CCn1c(-c2ccc(OC)cc2OC)cc(=O)[nH]c1=S [Example 240, ethyl 3-[6-(2,4-dimethoxyphenyl)-4-oxo-2-thioxo-3,4-dihydropyrimidin-1(2H)-yl]propanoate] | 7070 1/s per M |
| COc1ccc(-c2cc(=O)[nH]c(=S)n2CC(=O)NCCN)c(OC)c1 [Example 241, N-(2-aminoethyl)-2-(6-(2,4-dimethoxyphenyl)-4-oxo-2-thioxo-3,4-dihydropyrimidin-1(2H)-yl)acetamide hydrochloride] | 7060 1/s per M |
